Measurements from paper PMC6889545, “ALW peptide ameliorates lupus nephritis in MRL/lpr mice” (Arthritis Research & Therapy, 2019).
Read-outs that look alike come from different tables or passages of the source. Values belong to the compound of their own block, whether it stands above or below them. Non-standard residues stand in square brackets, D forms with d. Residues, ends and D or L forms follow the SMILES beside them.

Assays:
[1] = system: murine model; settings: cited from earlier work
From the text: IgG2a and IgG3 had higher affinity for autoantigens in the kidney, followed by IgG1, IgG2b, and IgM [12]. DWEYS peptide (DWEYSVWLSN) is a DNA-mimic peptide screened by a mouse pathogenic monoclonal antibody (IgG2b, R4A clone). […] FISLE-412, a peptide compound mimicking the molecular structure of DWEYS ... || Given the key role of anti-dsDNA antibodies in the pathogenesis of LN, development of specific inhibitors of anti-dsDNA antibodies may be a good method to manage LN. Several polypeptides, specifically reacting with mouse anti-dsDNA IgG2b, were identified by the peptide display phage library. […] FISLE-412, a small peptidomimetic modified from DWEYS peptide, blocked the binding of DNA to monoclonal mouse and human anti-dsDNA antibodies with improved affinity and selectivity. In ...

[2] = system: BALB/c mice; experiment: Induction of anti-dsDNA antibodies after intravenous peptide injection; format: in vivo, mouse; settings: same dosages, frequencies and treatment period as MRL/lpr study, data not shown
From the text: The ALW and PLP peptides were also intravenously injected into BALB/c mice with the same dosages, frequencies, and treatment period. […] All animal protocols were approved by the Hospital Research Ethics Committee.

[3] = Tissue biodistribution of ALW peptide (kidney, liver, lung); format: in vivo, CD1 mice
Experimental: (§1) Two 12-amino acid peptides (ALWPPNLHAWVP [ALW]; PLPHNPWVLAAW [PLP]) were synthetized by Sangon Biotech Company (China). The PLP peptide was a scrambled peptide with amino acid residues identical to ALW peptide. The first and last amino acids of both peptides are D-form, and the others are L-form. To study the pharmacokinetic characteristics of both peptides in vivo, 8-week-old male CD1 mice were administrated with ALW or PLP peptide at a single dose of 12.5 mg/kg. Plasma samples were collected at each time point before (0) and 0.083, 0.25, 0.5, 1, 2, 4, 8, and 24 h after administration. To assess the biodistribution of ALW peptide in vivo, tissues including the kidney, liver, and lung were collected at 0.083, 0.25, 0.5, 1, 2, and 4 h after administration. Then, the concentration of two peptides in mouse plasma and tissues were quantitatively determined by liquid chromatography-tandem mass spectrometry (LC-MS/MS). The pharmacokinetic parameters were calculated by WinNonlin 6.1 software according to the […] model.

[4] = system: anti-dsDNA IgGs; settings: cited from earlier work
From the text: The ALW peptide is a small molecule with a molecular weight of 1.4 kDa. […] Because there is no methionine, cysteine, and glutamine, which are related with the oxidation, cyclization, and degradation of peptides, ALW may have greater physiological stability. In addition, the ALW peptide has a relatively neutral net charge (pI = 7.38), which probably decrease unnecessary, nonspecific protein-protein interactions. […] Here, after chemical modification ...

[5] = Solubility of the peptides; format: physicochemical; settings: for Maximum solubility: injection solution in saline
Experimental: For the in vivo study, 40 MRL/lpr mice were randomly divided into four groups. Mice in the ALW group (n = 12) received an intravenous injection of 100 μg/mL ALW peptide in saline every other day, mice in the PLP group (n = 12) were injected intravenously with 100 μg/mL PLP peptide in saline, mice in the NaCl group (n = 8) were given normal saline intravenously, and mice in the blank group (n = 8) were not treated. The dosages were decided in a preliminary experiment, showing that the concentration of anti-dsDNA IgG was about 34.74 ± 3.47 ng/mL in MRL/lpr mice aged 24 weeks. By calculating the molecular weights of anti-dsDNA IgG (150 kDa) to ALW peptide (1.4 kDa), the ALW concentration of 100 μg/mL is sufficient to maintain a high molar ratio (much higher than 5 times of anti-dsDNA IgG). In fact, the maximum solubility of PLP peptide is also 100 μg/mL, less than ALW peptide. Urine was collected every 2 weeks. Six weeks later, the mice were euthanized. Blood, urine, and kidneys were harvested for further analysis.

[6] = Plasma pharmacokinetics of the peptides after a single dose; format: in vivo; settings: 8-week-old male CD1 mice, single intravenous dose 12.5 mg/kg, plasma 0-24 h, LC-MS/MS, WinNonlin 6.1; for MRT: male, CD1, mouse, plasma, iv, 12.5 mg/kg; for clearance: read-out: Cl (plasma clearance); for Vd: read-out: Vss
Experimental: as §1

[7] = system: NZB×NZW F1 lupus mice; settings: intravenous once a month; cited from earlier work
From the text: Given the key role of anti-dsDNA antibodies in the pathogenesis of LN, development of specific inhibitors of anti-dsDNA antibodies may be a good method to manage LN. Several polypeptides, specifically reacting with mouse anti-dsDNA IgG2b, were identified by the peptide display phage library. […] FISLE-412, a small peptidomimetic modified from DWEYS peptide, blocked the binding of DNA to monoclonal mouse and human anti-dsDNA antibodies with improved affinity and selectivity. In ...

[8] = 8-week-old male CD1 mice, single intravenous dose 12.5 mg/kg, kidney tissue 0.083-4 h, LC-MS/MS, WinNonlin 6.1
[9] = 8-week-old male CD1 mice, single intravenous dose 12.5 mg/kg, liver tissue 0.083-4 h, LC-MS/MS, WinNonlin 6.1
[10] = 8-week-old male CD1 mice, single intravenous dose 12.5 mg/kg, lung tissue 0.083-4 h, LC-MS/MS, WinNonlin 6.1
[11] = read-out: MRT0-inf (mean residence time) in plasma

Compound: DWEYSVWLSN [DWEYS peptide, DNA-mimic peptide … screened by a mouse pathogenic monoclonal antibody (IgG2b, R4A clone)]
Renal deposition of IgG2b ([1]; SCID mice): protected SCID mice from the renal deposition of IgG2b | Renal IgG deposition ([1]; murine model, intraperitoneal administration): evidently depressed

Anti-dsDNA antibodies in sera after treatment (immunogenicity) [2]: induced no anti-dsDNA antibodies | Anti-dsDNA antibodies in sera after treatment (immunogenicity) ([2]; listed as ALW): no detectable anti-dsDNA antibodies | AUC0-inf in kidney [3, 8]: 28.80 ng·h/g | AUC0-last in kidney [3, 8]: 25.51 ng·h/g | Cmax in kidney [3, 8]: 60.00 ng/g | MRT0-inf in kidney [3, 8]: 27.6 min | MRT0-last in kidney [3, 8]: 19.8 min | T1/2 in kidney [3, 8]: 18.6 min | Tmax in kidney [3, 8]: 4.8 min | Kp, kidney ([3]; 8-week-old male CD1 mice, single intravenous dose 12.5 mg/kg, kidney versus plasma): 0.11 | AUC0-last in liver [3, 9]: 2.29 ng·h/g | Cmax in liver [3, 9]: 11.80 ng/g | MRT0-last in liver [3, 9]: 8.4 min | Tmax in liver [3, 9]: 4.8 min | Kp, liver ([3]; 8-week-old male CD1 mice, single intravenous dose 12.5 mg/kg, liver versus plasma): 0.01 | AUC0-last in lung [3, 10]: 5.10 ng·h/g | Cmax in lung [3, 10]: 7.33 ng/g | MRT0-last in lung [3, 10]: 29.4 min | Tmax in lung [3, 10]: 15 min | Kp, lung ([3]; 8-week-old male CD1 mice, single intravenous dose 12.5 mg/kg, lung versus plasma): 0.02 | Renal tissue exposure as share of plasma exposure ([3]; CD1 mice, intravenous 12.5 mg/kg, kidney): approximately 11.2% | Liver tissue exposure as share of plasma exposure ([3]; CD1 mice, intravenous 12.5 mg/kg, liver): 0.892% | Lung tissue exposure as share of plasma exposure ([3]; CD1 mice, intravenous 12.5 mg/kg, lung): 1.99% | Maximum solubility [5]: > 100 µg/mL | Solubility in water or PBS ([5]; water or PBS): easy to dissolve in water or PBS | AUC0-inf in plasma [6]: 264 ng·h/mL | AUC0-last in plasma [6]: 258 ng·h/mL | MRT0-inf (mean residence time) in plasma [6]: 7.8 min | T1/2 (elimination half-life) in plasma [6]: 18.9 min | MRT [6, 11]: 7.8 min | MRT ([6]; read-out: MRT0-last in plasma): 6 min | C0 ([6]; mouse): 3640 ng/mL | clearance ([6]; mouse): 789 mL/min/kg | half-life ([6]; mouse, read-out: T1/2 (elimination half-life) in plasma (converted)): 19.2 min | Vd ([6]; mouse): 6.16 L/kg
Compound: CC(C)C[C@H](NC(=O)[C@H](CC(N)=O)NC(=O)[C@@H]1CCCN1C(=O)[C@@H]1CCCN1C(=O)[C@H](Cc1c[nH]c2ccccc12)NC(=O)[C@H](CC(C)C)NC(=O)[C@@H](C)N)C(=O)N[C@@H](Cc1c[nH]cn1)C(=O)N[C@@H](C)C(=O)N[C@@H](Cc1c[nH]c2ccccc12)C(=O)N[C@H](C(=O)N1CCC[C@@H]1C(=O)O)C(C)C [ALW peptide] (H-[dA]LWPPNLHAWV[dP]-OH)
Resistance of the peptide to catalysis ([4]; after substituting two terminal residues A and P with D-form ones): enhanced | Catalysis of the peptide by anti-dsDNA IgGs ([4]; unmodified peptide): catalyzed weakly

Compound: FIEWNKLRFRQGLEW [pCons, 15-mer peptide based on MHC class I and II T cell determinants in the VH region of murine anti-dsDNA IgG2a or IgG2b]
Emergence of multiple autoantibodies [7]: delayed the emergence of multiple autoantibodies

Anti-dsDNA antibodies in sera after treatment (immunogenicity) [2]: no detectable anti-dsDNA antibodies | Maximum solubility [5]: 100 µg/mL | MRT0-inf (mean residence time) in plasma [6]: 13.6 min | MRT [6, 11]: 13.8 min | MRT ([6]; read-out: MRT0-last in plasma): 11.4 min | C0 ([6]; mouse): 85400 ng/mL | AUC(0-inf) ([6]; mouse, read-out: AUC0-inf in plasma): 14100 ng·h/mL | AUC(0-t) ([6]; mouse, read-out: AUC0-last in plasma): 14100 ng·h/mL | clearance ([6]; mouse): 14.7 mL/min/kg | Vd ([6]; mouse): 0.2 L/kg
Compound: CC(C)C[C@H](NC(=O)[C@@H](NC(=O)[C@H](Cc1c[nH]c2ccccc12)NC(=O)[C@@H]1CCCN1C(=O)[C@H](CC(N)=O)NC(=O)[C@H](Cc1c[nH]cn1)NC(=O)[C@@H]1CCCN1C(=O)[C@H](CC(C)C)NC(=O)[C@H]1CCCN1)C(C)C)C(=O)N[C@@H](C)C(=O)N[C@@H](C)C(=O)N[C@H](Cc1c[nH]c2ccccc12)C(=O)O [PLP peptide, reference compound] (H-[dP]LPHNPWVLAA[dW]-OH)
